According to PubChem BioAssay (NCI):
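In this assay, cells in 96-well plates receive the compound at five concentrations for 48 hours. Endpoints are linearly interpolated between the surrounding concentrations. Abbreviation: GI50, concentration required for 50% inhibition of growth. TGI: concentration producing complete growth inhibition.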

Key:
Assay in all cases: inhibition of tumour cell growth, NCI panel, 48 h
786-0 renal = tested on: 786-0 renal
A498 renal = tested on: A498 renal
A549 NSCLC = tested on: A549 NSCLC
ACHN renal = tested on: ACHN renal
BT-549 breast = tested on: BT-549 breast
CAKI-1 renal = tested on: CAKI-1 renal
CCRF-CEM leukemia = tested on: CCRF-CEM leukemia
COLO 205 colon = tested on: COLO 205 colon
DU-145 prostate = tested on: DU-145 prostate
HCC-2998 colon = tested on: HCC-2998 colon
HCT-116 colon = tested on: HCT-116 colon
HCT-15 colon = tested on: HCT-15 colon
HL-60(TB) leukemia = tested on: HL-60(TB) leukemia
HOP-62 NSCLC = tested on: HOP-62 NSCLC
HOP-92 NSCLC = tested on: HOP-92 NSCLC
HS 578T breast = tested on: HS 578T breast
HT29 colon = tested on: HT29 colon
IGROV1 ovarian = tested on: IGROV1 ovarian
K-562 leukemia = tested on: K-562 leukemia
KM12 colon = tested on: KM12 colon
LOX IMVI melanoma = tested on: LOX IMVI melanoma
M14 melanoma = tested on: M14 melanoma
MALME-3M melanoma = tested on: MALME-3M melanoma
MCF7 breast = tested on: MCF7 breast
MDA-MB-231 breast = tested on: MDA-MB-231 breast
MDA-MB-435 = tested on: MDA-MB-435
MOLT-4 leukemia = tested on: MOLT-4 leukemia
NCI-H226 lung = tested on: NCI-H226 lung
NCI-H23 lung = tested on: NCI-H23 lung
NCI-H460 lung = tested on: NCI-H460 lung
NCI-H522 lung = tested on: NCI-H522 lung
NCI/ADR-RES ovarian = tested on: NCI/ADR-RES ovarian
OVCAR-3 ovarian = tested on: OVCAR-3 ovarian
OVCAR-4 ovarian = tested on: OVCAR-4 ovarian
OVCAR-5 ovarian = tested on: OVCAR-5 ovarian
OVCAR-8 ovarian = tested on: OVCAR-8 ovarian
PC-3 prostate = tested on: PC-3 prostate
RPMI-8226 leukemia = tested on: RPMI-8226 leukemia
RXF 393 renal = tested on: RXF 393 renal
SF-268 CNS = tested on: SF-268 CNS
SF-295 CNS = tested on: SF-295 CNS
SF-539 CNS = tested on: SF-539 CNS
SK-MEL-2 melanoma = tested on: SK-MEL-2 melanoma
SK-MEL-28 melanoma = tested on: SK-MEL-28 melanoma
SK-MEL-5 melanoma = tested on: SK-MEL-5 melanoma
SK-OV-3 ovarian = tested on: SK-OV-3 ovarian
SN12C renal = tested on: SN12C renal
SNB-19 CNS = tested on: SNB-19 CNS
SNB-75 CNS = tested on: SNB-75 CNS
SR leukemia = tested on: SR leukemia
SW-620 colon = tested on: SW-620 colon
T-47D breast = tested on: T-47D breast
TK-10 renal = tested on: TK-10 renal
U251 CNS = tested on: U251 CNS
UACC-257 melanoma = tested on: UACC-257 melanoma
UACC-62 melanoma = tested on: UACC-62 melanoma
UO-31 renal = tested on: UO-31 renal

With O=C1NC(=NCc2ccccn2)S/C1=C\c1ccc2ncccc2c1 the GI50 (786-0 renal) was 13.4 µM, the TGI (786-0 renal) was > 25 µM and the GI50 (A498 renal) was 3.95 µM. The TGI (A498 renal) was > 18.8 µM, the GI50 (A549 NSCLC) was 8.41 µM and the TGI (A549 NSCLC) was > 25 µM. The GI50 (ACHN renal) was 10.2 µM, the TGI (ACHN renal) was > 25 µM and the GI50 (BT-549 breast) was 9.23 µM. The TGI (BT-549 breast) was > 25 µM, the GI50 (CAKI-1 renal) was 6.62 µM and the TGI (CAKI-1 renal) was > 18.9 µM. The GI50 (CCRF-CEM leukemia) was 10.7 µM, the TGI (CCRF-CEM leukemia) was > 25 µM and the GI50 (COLO 205 colon) was 7.68 µM. For the same compound, the TGI (COLO 205 colon) was > 25 µM, the GI50 (DU-145 prostate) was 9.81 µM and the TGI (DU-145 prostate) was > 25 µM. For the same compound, the GI50 (HCC-2998 colon) was 13.8 µM, the TGI (HCC-2998 colon) was > 25 µM and the GI50 (HCT-116 colon) was 8.86 µM. For the same compound, the TGI (HCT-116 colon) was > 25 µM, the GI50 (HCT-15 colon) was 6.86 µM and the TGI (HCT-15 colon) was > 25 µM. The GI50 (HL-60(TB) leukemia) was 6.56 µM, the TGI (HL-60(TB) leukemia) was > 25 µM and the GI50 (HOP-62 NSCLC) was 13.2 µM. For the same compound, the TGI (HOP-62 NSCLC) was > 25 µM, the GI50 (HOP-92 NSCLC) was 6.5 µM and the TGI (HOP-92 NSCLC) was > 21.8 µM. The GI50 (HS 578T breast) was 6.12 µM, the TGI (HS 578T breast) was 21.4 µM and the GI50 (HT29 colon) was 15 µM. The TGI (HT29 colon) was > 25 µM, the GI50 (IGROV1 ovarian) was 17.8 µM and the TGI (IGROV1 ovarian) was > 25 µM. The GI50 (K-562 leukemia) was 8.29 µM, the TGI (K-562 leukemia) was > 25 µM and the GI50 (KM12 colon) was 13.2 µM. The TGI (KM12 colon) was > 25 µM, the GI50 (LOX IMVI melanoma) was 13.1 µM and the TGI (LOX IMVI melanoma) was > 25 µM. For the same compound, the GI50 (M14 melanoma) was 11.6 µM, the TGI (M14 melanoma) was > 25 µM and the GI50 (MALME-3M melanoma) was > 13.1 µM. The TGI (MALME-3M melanoma) was > 23.3 µM, the GI50 (MCF7 breast) was 8.75 µM and the TGI (MCF7 breast) was > 25 µM. The GI50 (MDA-MB-231 breast) was 17.8 µM, the TGI (MDA-MB-231 breast) was > 25 µM and the GI50 (MDA-MB-435) was 7.64 µM. The TGI (MDA-MB-435) was > 21.9 µM, the GI50 (MOLT-4 leukemia) was 11.3 µM and the TGI (MOLT-4 leukemia) was > 25 µM. The GI50 (NCI-H226 lung) was 15 µM, the TGI (NCI-H226 lung) was > 25 µM and the GI50 (NCI-H23 lung) was 12.1 µM. The TGI (NCI-H23 lung) was > 25 µM, the GI50 (NCI-H460 lung) was 9.07 µM and the TGI (NCI-H460 lung) was > 25 µM. The GI50 (NCI-H522 lung) was 7.61 µM, the TGI (NCI-H522 lung) was > 18.8 µM and the GI50 (NCI/ADR-RES ovarian) was 16.9 µM. The TGI (NCI/ADR-RES ovarian) was > 25 µM, the GI50 (OVCAR-3 ovarian) was 12.6 µM and the TGI (OVCAR-3 ovarian) was > 25 µM. The GI50 (OVCAR-4 ovarian) was 9.74 µM, the TGI (OVCAR-4 ovarian) was 24.7 µM and the GI50 (OVCAR-5 ovarian) was > 25 µM. For the same compound, the TGI (OVCAR-5 ovarian) was > 25 µM, the GI50 (OVCAR-8 ovarian) was 14.4 µM and the TGI (OVCAR-8 ovarian) was > 25 µM. For the same compound, the GI50 (PC-3 prostate) was > 25 µM, the TGI (PC-3 prostate) was > 25 µM and the GI50 (RPMI-8226 leukemia) was > 12.6 µM. For the same compound, the TGI (RPMI-8226 leukemia) was > 25 µM, the GI50 (RXF 393 renal) was 8.8 µM and the TGI (RXF 393 renal) was > 25 µM. For the same compound, the GI50 (SF-268 CNS) was 8.5 µM, the TGI (SF-268 CNS) was > 25 µM and the GI50 (SF-295 CNS) was 14.7 µM. For the same compound, the TGI (SF-295 CNS) was > 25 µM, the GI50 (SF-539 CNS) was 7.54 µM and the TGI (SF-539 CNS) was > 25 µM. For the same compound, the GI50 (SK-MEL-2 melanoma) was 10.7 µM, the TGI (SK-MEL-2 melanoma) was > 22.8 µM and the GI50 (SK-MEL-28 melanoma) was > 23.7 µM. The TGI (SK-MEL-28 melanoma) was > 25 µM, the GI50 (SK-MEL-5 melanoma) was 13 µM and the TGI (SK-MEL-5 melanoma) was > 25 µM. For the same compound, the GI50 (SK-OV-3 ovarian) was 8.59 µM, the TGI (SK-OV-3 ovarian) was > 23.5 µM and the GI50 (SN12C renal) was 10.8 µM. The TGI (SN12C renal) was > 25 µM, the GI50 (SNB-19 CNS) was 10.7 µM and the TGI (SNB-19 CNS) was > 25 µM. It also gave a GI50 (SNB-75 CNS) of 4.21 µM, a TGI (SNB-75 CNS) of 22.4 µM and a GI50 (SR leukemia) of 6 µM. The TGI (SR leukemia) was 24.8 µM, the GI50 (SW-620 colon) was 7.81 µM and the TGI (SW-620 colon) was > 25 µM. The GI50 (T-47D breast) was 11.2 µM, the TGI (T-47D breast) was > 25 µM and the GI50 (TK-10 renal) was 6.06 µM. The TGI (TK-10 renal) was > 20.2 µM, the GI50 (U251 CNS) was 7.87 µM and the TGI (U251 CNS) was > 25 µM. The GI50 (UACC-257 melanoma) was > 12.7 µM, the TGI (UACC-257 melanoma) was > 25 µM and the GI50 (UACC-62 melanoma) was > 17.5 µM. For the same compound, the TGI (UACC-62 melanoma) was > 25 µM, the GI50 (UO-31 renal) was 11.3 µM and the TGI (UO-31 renal) was > 25 µM.
